SMILES	melting point [°C]
N=c1sc2cc(OC(F)(F)F)cc3c2n1CCC3=O [Example 8, 2-imino-8-trifluoromethoxy-2H,4H-thiazolo-[5,4,3-ij]quinolin-6-one]	192
N=c1sc2cc(OC(F)(F)F)cc3c2n1CC(=O)N3 [Example 37, 2-imino-8-trifluoromethoxy-2H,4H-thiazolo[3,4,5-de]quinoxalin-5(6H)-one]	255

Source: US6713468B2, “Methods of using thiazolobenzoheterocycles” (Aventis Pharma S.A., priority 1997, dated 2004)
